Converted amounts (≈) assume the structure as drawn. Residues, ends and D or L forms follow the SMILES beside them.
Assays:
[1] = test system: Streptomyces sindenensis ATCC 23963; assay: Modified MBC determination; type: cell-based; settings: Table 2
Description: (§1) The minimum bactericidal concentration (MBC) was determined as previously described with minor modifications. Briefly, bacteria were cultured in the mid-log phase and diluted to 5 × 10^5 colony-forming unit (CFU)/mL in 10 mM sodium phosphate buffer (pH 7.4) with a 1% volume of TS broth. They were incubated for 1 h with various peptides which were two-fold diluted serially from 64 μg/mL to 0 μg/mL concentrations in a 96-well plate. The samples were inoculated TS agar plate and incubated overnight at 37 °C. The value of MBC was determined at the lowest concentrations at which no colonies were identified.
(§2) We used the CFU counting method to measure antibacterial activity, with all bacteria cultured to the mid-log phase in an appropriate broth medium. Bacterial CFUs were counted after overnight culture at 37 °C on TS or LB agar plates. The MBC value and antibacterial activity in blood components were determined as previously described. Mouse and human whole blood were collected and diluted with PBS (pH 7.4) to measure the ex vivo antibacterial activity of AMPR-22. For that test, AMPR-22 (10 μg) was added to each whole blood solution and incubated at 37 °C with shaking at 200 rpm. At each time point, it was incubated with bacteria (1 × 10^3 CFU) for 30 min. Each sample was inoculated on an LB agar plate, and CFU counting was performed. To measure the in vivo activity of AMPR-22, 1 × 10^8 CFU of bacteria were injected into BALB/c mice, and an hour later, 10 mg/kg of the test peptides were injected. Blood samples were collected by tail cut, serially diluted with PBS (pH 7.4), and inoculated on LB-agar plates, followed by CFU counting. To estimate the functional half-life of AMPR-22, 40 mg/kg of each tested peptide were injected into mice. Whole blood sampling was performed by cardiac puncture, and the plasma was isolated by centrifugation (2000× g, 15 min). The isolated plasma was incubated with bacteria (1 × 10^3 CFU) for an hour, and then the CFU counting method was performed.

[2] = test system: Enterobacter aerogenes ATCC 13048; assay: Modified MBC determination; type: cell-based; settings: Table 2
Description: as §1, §2

[3] = test system: Enterococcus faecalis ATCC 19433; assay: Modified MBC determination; type: cell-based; settings: Table 2
Description: as §1, §2

[4] = test system: Acinetobacter baumannii ATCC 19606; assay: Modified MBC determination; type: cell-based; settings: Table 2
Description: as §1, §2

[5] = test system: Klebsiella pneumoniae ATCC 13883; assay: Modified MBC determination; type: cell-based; settings: Table 2
Description: as §1, §2

[6] = test system: Escherichia coli ATCC 25922; assay: Modified MBC determination; type: cell-based; settings: Table 2
Description: as §1, §2

[7] = test system: Enterococcus faecium ATCC 19434; assay: Modified MBC determination; type: cell-based; settings: Table 2
Description: as §1, §2

[8] = test system: Bacillus subtilis ATCC 6633; assay: Modified MBC determination; type: cell-based; settings: Table 2
Description: as §1, §2

[9] = test system: Carbapenem-resistant P. aeruginosa (CRPA), clinical isolate; type: cell-based, Pseudomonas aeruginosa; settings: 1 h
Outline: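 Mid-log clinical isolates diluted to 5 × 10^5 CFU/mL in 10 mM sodium phosphate (pH 7.4) with 1% TS broth, exposed 1 h to peptides two-fold diluted from 64 μg/mL, then plated on TS agar overnight at 37 °C. MBC is the lowest concentration with no colonies.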

[10] = test system: Vancomycin-resistant E. faecium NCCP 11522; type: cell-based, Enterococcus faecium; settings: Vancomycin-resistant NCCP 11522, 1 h
Description: as §1
We used the CFU counting method to measure antibacterial activity, with all bacteria cultured to the mid-log phase in an appropriate broth medium. Bacterial CFUs were counted after overnight culture at 37 °C on TS or LB agar plates. The MBC value and antibacterial activity in blood components were determined as previously described. Mouse and human whole blood were collected and diluted with PBS (pH 7.4) to measure the ex vivo antibacterial activity of AMPR-22. For that test, AMPR-22 (10 μg) was added to each whole blood solution and incubated at 37 °C with shaking at 200 rpm. At each time point, it was incubated with bacteria (1 × 10^3 CFU) for 30 min. Each sample was inoculated on an LB agar plate, and CFU counting was performed. […]

human erythrocytes = assay: Hemolysis assay; type: cell-based; settings: 2% erythrocytes in PBS, 1 h 37 °C, absorbance 550 nm; up to / at 256 µg/mL
Description: For the hemolytic assay, mouse and human whole blood was diluted with PBS (pH 7.4) and centrifuged for 10 min at 500× g. After removing the supernatant and rinsing the pellet three times with PBS, we resuspended the erythrocytes in PBS at 2% volume. The blood solution was added to the solution of peptides with two-fold serial dilution on a 96-well plate. After incubation for an hour at 37 °C, the plate was centrifuged at 2500× g for 10 min, and the absorbance of the supernatant was measured at 550 nm. The PBS-treated sample was the negative control, and the 0.1% Triton X-100–treated sample was the positive control. To measure white blood cell toxicity, mouse and human PBMCs were freshly isolated as previously described, and 70% ethanol (positive control) or AMPR-22 was administered using two-fold diluted concentrations (0 to 256 μg/mL) for 30 min. To measure cell death, a LIVE/DEAD® fixable green dead cell stain kit (Thermo Fisher Scientific, Waltham, MS, USA) was used following the manufacturer′s instructions, and flow cytometry was performed using a FACS Canto II (BD Biosciences, CA, USA). The toxicity of AMPR-22 was compared with negative (PBS-treated) and positive controls, and the data were analyzed using FlowJo software (Tree Star, OR, USA).

[11] = test system: Vancomycin-resistant S. aureus NCCP 15872; type: cell-based, Staphylococcus aureus; settings: Vancomycin-resistant NCCP 15872, 1 h
Outline: (§3)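 1 h kill in 10 mM Na phosphate pH 7.4/1% TS broth; 5 × 10^5 CFU/mL; peptide 2-fold from 64 μg/mL; TS agar plating, 37 °C o/n; MBC read as lowest dose with zero colonies.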

[12] = test system: Methicillin-resistant S. aureus (MRSA) ATCC 33591; type: cell-based, Staphylococcus aureus; settings: Table 2; ATCC 33591; modified MBC
Outline: as §3

[13] = test system: Staphylococcus aureus ATCC 29213; type: cell-based
Outline: as §3

[14] = test system: Streptococcus pneumoniae NCCP 14585; type: cell-based; settings: NCCP 14585, 1 h
Outline: as §3

[15] = test system: Pseudomonas aeruginosa ATCC 27853; type: cell-based
Outline: as §3

[16] = test system: Carbapenem-resistant K. pneumoniae, clinical isolate; type: cell-based, Klebsiella pneumoniae; settings: 1 h
From the text: (§4) Acinetobacter baumannii (ATCC 19606), B. subtilis (ATCC 6633), E. aerogenes (ATCC 13048), E. coli (ATCC 25922), E. faecalis (ATCC 19433), E. faecium (ATCC 19434), K. pneumoniae (ATCC 13883), P. aeruginosa (ATCC 27853), S. aureus (ATCC 29213), S. sindenensis (ATCC 23963), and MRSA (ATCC 33591) were purchased from the American Type Culture Collection (ATCC; Gaithersburg, MD, USA). Streptococcus pneumoniae (NCCP 14585), vancomycin-resistant E. faecium (NCCP 11522), and vancomycin-resistant S. aureus (NCCP 15872) were purchased from the National Culture Collection for Pathogens (NCCP; Cheongju, Korea). The isolation and use of carbapenem-resistant bacterial strains from a patient were approved (2015AN0129) by the Institutional Review Board (IRB) of Korea University Hospital. […]
(§5) The minimum bactericidal concentration (MBC) was determined as previously described with minor modifications. […] The value of MBC was determined at the lowest concentrations at which no colonies were identified.
(§6) We used the CFU counting method to measure antibacterial activity, with all bacteria cultured to the mid-log phase in an appropriate broth medium. Bacterial CFUs were counted after overnight culture at 37 °C on TS or LB agar plates. The MBC value and antibacterial activity in blood components were determined as previously described. […]

[17] = test system: Carbapenem-resistant A. baumannii, clinical isolate; type: cell-based, Acinetobacter baumannii; settings: 1 h
From the text: as §4, §5, §6

P. aeruginosa = assay: Serial passage assay (acquisition of drug resistance); type: cell-based, Pseudomonas aeruginosa; settings: sub-MBC treatment
Description: For the PI uptake assay, bacteria were cultured in the mid-log phase and diluted to 5 × 10^5 CFU/mL in PBS (pH 7.4). The peptides were treated with 40 μg/mL for 10 min, and then 10 μM PI was added and incubated for 20 min. The PI fluorescence was measured with a flow cytometric assay using a FACS Canto II (BD Biosciences, CA, USA), and the data were analyzed using FlowJo software (Tree Star, Ashland, OR, USA). NPN uptake and a membrane depolarization assay were performed as previously described, with some changes. Briefly, 1 × 10^4 CFU/mL of bacteria were place on a 96-well plate, and then 10 μM NPN or 4 μM DiSC3(5) was added, and AMPR-22 was administered. The fluorescence signal was measured for 10 min using a SpectraMax Plus 384 microplate reader (Molecular Devices, San Jose, CA, USA). For the NPN uptake assay, AMPR-22 was administered 3 min after the start of the fluorescence measurements. The ATP leakage assay was performed using a BacTiter-glo™ kit (Promega, Madison, WI, USA) and the manufacturer’s instructions with minor modifications. […] The luminescence signal was measured using a SpectraMax Plus 384 microplate reader (Molecular Devices, San Jose, CA, USA). […] Sub-MBC concentrations of peptide were administered to 1 mL of cultured cells, and then the MBC values were determined for every passage. […]

Compound: CC[C@H](C)[C@H](NC(=O)CNC(=O)[C@H](CCSC)NC(=O)CNC(=O)[C@@H](NC(=O)[C@H](C)NC(=O)[C@H](CCSC)NC(=O)[C@H](Cc1ccccc1)NC(=O)[C@@H](NC(=O)CNC(=O)[C@H](Cc1ccccc1)NC(=O)[C@H](CCCCN)NC(=O)CNC(=O)CNC(=O)[C@H](CCCCN)NC(=O)[C@H](CCCCN)NC(=O)[C@H](CCSC)NC(=O)[C@H](CCSC)NC(=O)[C@H](CCCCN)NC(=O)[C@@H](N)CCCCN)[C@@H](C)O)[C@@H](C)CC)C(=O)N[C@@H](CCCNC(=N)N)C(=O)O [AMPR-21] (H-KKMMKKGGKFGTFMAIGMGIR-OH)
- MBC Value, Streptomyces sindenensis [1]: 4 µg/mL (≈ 1.73 µM)
- MBC Value, Enterobacter aerogenes [2]: 4 µg/mL (≈ 1.73 µM)
- MBC Value, Enterococcus faecalis [3]: 8 µg/mL (≈ 3.45 µM)
- MBC Value, Acinetobacter baumannii [4]: 4 µg/mL (≈ 1.73 µM)
- MBC Value, Klebsiella pneumoniae [5]: 4 µg/mL (≈ 1.73 µM)
- MBC Value, Escherichia coli [6]: 4 µg/mL (≈ 1.73 µM)
- MBC Value, Enterococcus faecium [7]: 8 µg/mL (≈ 3.45 µM)
- MBC Value, Bacillus subtilis [8]: 2 µg/mL (≈ 0.863 µM)
- MBC Value, CRPA [9]: 4 µg/mL (≈ 1.73 µM)
- MBC Value, Carbapenem-resistant P. aeruginosa [9]: 4 µg/mL (≈ 1.73 µM)
- MBC Value, Vancomycin-resistant E. faecium [10]: 8 µg/mL (≈ 3.45 µM)
- Hemolytic activity against human erythrocytes (human erythrocytes): negligible hemolytic activity
- MBC Value, Vancomycin-resistant S. aureus [11]: 8 µg/mL (≈ 3.45 µM)
- MBC Value, Methicillin-resistant S. aureus [12]: 8 µg/mL (≈ 3.45 µM)
- MBC Value, S. aureus ([13]; ATCC 29213, 1 h, pH 7.4): 8 µg/mL (≈ 3.45 µM)
- MBC Value, Staphylococcus aureus ([13]; Table 2, ATCC 29213, modified MBC): 4 µg/mL (≈ 1.73 µM)
- MBC Value, Streptococcus pneumoniae [14]: 8 µg/mL (≈ 3.45 µM)
- MBC Value, P. aeruginosa ([15]; ATCC 27853, 1 h): 4 µg/mL (≈ 1.73 µM)
- MBC Value, Pseudomonas aeruginosa ([15]; Table 2, ATCC 27853, modified MBC): 4 µg/mL (≈ 1.73 µM)
- MBC Value, Carbapenem-resistant K. pneumoniae [16]: 8 µg/mL (≈ 3.45 µM)
- MBC Value, Carbapenem-resistant A. baumannii [17]: 2 µg/mL (≈ 0.863 µM)

Compound: CNC(C)C1CCC(N)C(OC2C(N)CC(N)C(OC3OCC(C)(O)C(NC)C3O)C2O)O1 (centres unmarked) [gentamicin]
- Passages after which resistance developed (P. aeruginosa): nine
- Increase of the modified MBC value after 30 passages (P. aeruginosa; 30 passages): 64 fold
